From PMC5443783, “Prostaglandin E2 glyceryl ester is an endogenous agonist of the nucleotide receptor P2Y6” (Scientific Reports, 2017)

How the values were obtained:
P2Y12 = target: T1, P2Y12 (Homo sapiens, UniProt Q9H244); assay: Intracellular Ca2+ release in HEK293 cells transfected with P2RY12; type: cell-based; details: HEK293 transfected with P2RY12, Fig. 3f
T1 construct: expressed in transfected cells; host or cells: HEK293
Description: For fluorometric measurements of intracellular Ca^2+ levels with the FlexStationII instrument (Molecular Devices), RAW264.7 and H1819 cells were seeded into 96-well plates (3.0 × 10^4 cells/well) 24 h prior to assay. Ca^2+ measurements with transiently transfected HEK293 cells were performed 48 h after transfection. Cells were loaded with 200 µl Calcium 5 reagent (Explorer Kit, Molecular Devices, USA) for 60 min at 37 °C, and the assay was performed as described. Agonists and inhibitors were solved in DMSO (100x) and diluted […] in 96-well compound plates containing HBSS. 50 µl of compound solution were added to the assay plate resulting in final concentration of 1% DMSO. Fold-response was calculated by RFUmax − RFUmin (ligand)/RFUmax − RFUmin (vehicle). EC50 values were calculated by using GraphPad Prism6 software (GraphPad, USA).

[1] = system: prostanoid receptors EP1–4, DP, FP, TP, or IP; design: method as in PMID 18297109, PMID 14766978, PMID 14757851; details: cited from earlier work
P2Y6 [2] = target: T2, P2Y6 (Homo sapiens, UniProt Q15077); assay: IP3 assay in P2RY6-transfected HEK293 cells; type: cell-based; design: expressed in transfected cells; host or cells: HEK293; details: Fig. 3a, read-out: EC50, IP3 levels
Description: To measure intracellular IP3 the HitHunter® Inositol (1,4,5) Triphosphate Assay (DiscoveRx, USA) was used according to manufacturer′s protocol. HEK293 cells stably transfected with hP2RY6 were seeded in a 384-well Black microtiter plate (15,000 cells/well) (Greiner Bio One, Germany) and incubated with indicated concentrations of UDP and PGE2-G for 20 seconds. Reaction was stopped by adding 5 µl 0.2 N perchloric acid and measurement of IP3 was performed with the Fusion AlphaScreen multilabel reader (PerkinElmer Life Sciences) according to manufacturer′s protocol. To measure IP1, HEK293 cells expressing wildtype and mutant P2Y6 were seeded into 384-well plates (5,000 cells/well) 24 h prior assay. After aspiration of the medium, cells were incubated with indicated concentrations of agonists/antagonist for 1 h. IP1 measurements using the IP-one HTFR® assay kit (Cisbio assays, USA) were performed according to manufacturer′s protocol. The assays were performed with a final concentration of 1% DMSO.

P2Y6 [3] = target: T2, P2Y6; assay: cAMP-inhibition assay in P2RY6-transfected HEK293 cells; type: cell-based; design: expressed in transfected cells; host or cells: HEK293; details: P2RY6-transfected HEK293, 2.5 µM forskolin, Fig. 3c; read-out: EC50, suppression of cAMP formation
Description: After transfection (72 h), cells were washed once with DMEM/F12 containing 1 mM 3-isobutyl-methyl-xanthine (IBMX) followed by incubation in the presence of the indicated compounds and forskolin (2.5 µM) for 15 min at 37 °C. The final concentration of DMSO was 1%. Cells were lysed in 25 μl lysis buffer (5 mM HEPES; 0.1% BSA; 0.3% Tween20; 1 mM IBMX; pH 7.4) and kept frozen at −20 °C until measurement. To measure cAMP concentration, the AlphaScreen cAMP assay kit (PerkinElmer Life Sciences) was used according to the manufacturer’s protocol.

T2 sequence (Q15077 whole entry, the tested form may be a part): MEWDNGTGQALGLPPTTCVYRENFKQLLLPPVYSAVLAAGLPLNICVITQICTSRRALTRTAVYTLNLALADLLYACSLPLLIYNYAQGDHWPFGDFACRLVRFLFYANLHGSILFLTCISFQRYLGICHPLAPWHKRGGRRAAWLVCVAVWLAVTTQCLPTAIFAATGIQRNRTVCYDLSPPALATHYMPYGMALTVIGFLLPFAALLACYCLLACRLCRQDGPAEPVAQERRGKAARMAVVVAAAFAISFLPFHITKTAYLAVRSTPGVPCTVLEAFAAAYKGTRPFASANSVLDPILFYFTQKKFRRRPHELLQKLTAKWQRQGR
T1 sequence (Q9H244 whole entry, species assumed): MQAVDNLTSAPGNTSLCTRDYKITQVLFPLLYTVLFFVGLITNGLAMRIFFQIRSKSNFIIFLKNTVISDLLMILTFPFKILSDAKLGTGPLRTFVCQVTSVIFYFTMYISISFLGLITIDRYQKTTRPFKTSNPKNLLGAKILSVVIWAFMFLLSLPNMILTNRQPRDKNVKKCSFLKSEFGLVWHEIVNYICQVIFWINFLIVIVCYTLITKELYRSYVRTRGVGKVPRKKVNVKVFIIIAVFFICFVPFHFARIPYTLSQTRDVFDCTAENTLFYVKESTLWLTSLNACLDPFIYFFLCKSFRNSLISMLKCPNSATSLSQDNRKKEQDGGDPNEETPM

| EC50 (P2Y6 [2]) | EC50 (P2Y6 [3]) | Compound | Ca2+ release (P2Y12) | activation of known prostanoid receptors [1] |
| --- | --- | --- | --- | --- |
|  |  | Prostaglandin E2 glyceryl ester [PGE2-G] | not and neither P2Y1 nor P2Y12 showed activity | does not efficiently activate |
| 2.7 ± 0.1 nM | 3.6 ± 0.3 nM | O=c1ccn([C@@H]2O[C@H](COP(=O)(O)OP(=O)(O)O)[C@@H](O)[C@H]2O)c(=O)[nH]1 [UDP] |  |  |
